Assay results published in patent publication US20180055032A1, “ODORS FOR PSYLLID TRAPPING, REPELLING AND CONTROL” (The Regents of the University of California, priority 2011, published 2018).
Where two headings read alike, the source gives them in different places.

Legend:
Type in all cases: cell-based, Diaphorina citri
[1] = test system: neuron 2A (rhinarial plate on flagellomere 2); assay: single-sensillum electrophysiology, odor response of neuron 2A; details: Table 1; odor diluted to 1%, 50 μL in cartridge; also: key: 0, no response; +, >50 spikes/second; ++, >100 spikes/second; +++, >150 spikes/second
[2] = test system: neuron 2B (rhinarial plate on flagellomere 2); assay: single-sensillum electrophysiology, odor response of neuron 2B; details: Table 1; odor diluted to 1%, 50 μL in cartridge
[3] = test system: neuron 2C (rhinarial plate on flagellomere 2); assay: single-sensillum electrophysiology, odor response of neuron 2C; details: Table 1; odor diluted to 1%, 50 μL in cartridge
[4] = test system: neuron 4A (rhinarial plate on flagellomere 4); assay: single-sensillum electrophysiology, odor response of neuron 4A; details: Table 1; odor diluted to 1%, 50 μL in cartridge
[5] = test system: neuron 4B (rhinarial plate on flagellomere 4)
[6] = test system: neuron 4C (rhinarial plate on flagellomere 4); assay: single-sensillum electrophysiology, odor response of neuron 4C; details: Table 1; odor diluted to 1%, 50 μL in cartridge
[7] = test system: neuron 6A (rhinarial plate on flagellomere 6); assay: single-sensillum electrophysiology, odor response of neuron 6A; details: Table 1; odor diluted to 1%, 50 μL in cartridge
[8] = test system: neuron 6B (rhinarial plate on flagellomere 6); assay: single-sensillum electrophysiology, odor response of neuron 6B; details: Table 1; odor diluted to 1%, 50 μL in cartridge
[9] = test system: neuron 6C (rhinarial plate on flagellomere 6); assay: single-sensillum electrophysiology, odor response of neuron 6C; details: Table 1; odor diluted to 1%, 50 μL in cartridge
[10] = test system: neuron 7A (rhinarial plate on flagellomere 7); assay: single-sensillum electrophysiology, odor response of neuron 7A; details: Table 1; odor diluted to 1%, 50 μL in cartridge; also: key: 0, no response; +, >50 spikes/second; ++, >100 spikes/second; +++, >150 spikes/second
[11] = test system: neuron 7B (rhinarial plate on flagellomere 7)
[12] = test system: neuron 7C (rhinarial plate on flagellomere 7); assay: single-sensillum electrophysiology, odor response of neuron 7C; details: Table 1; odor diluted to 1%, 50 μL in cartridge
[13] = Table 1, odor diluted to 1%, 50 μL in cartridge

Structure (SMILES)	odor response (frequency of action potentials during stimulus minus baseline), 2A [1]	odor response (frequency of action potentials during stimulus minus baseline), 2B [2]	odor response (frequency of action potentials during stimulus minus baseline), 2C [3]	odor response (frequency of action potentials during stimulus minus baseline), 4A [4]	odor response (frequency of action potentials during stimulus minus baseline), 4B [5]	odor response (frequency of action potentials during stimulus minus baseline), 4C [6]	odor response (frequency of action potentials during stimulus minus baseline), 6A [7]	odor response (frequency of action potentials during stimulus minus baseline), 6B [8]	odor response (frequency of action potentials during stimulus minus baseline), 6C [9]	odor response (frequency of action potentials during stimulus minus baseline), 7A [10]	odor response (frequency of action potentials during stimulus minus baseline), 7B [11]	odor response (frequency of action potentials during stimulus minus baseline), 7C [12]	odor response (frequency of action potentials during stimulus minus baseline), 4B [5, 13]	odor response (frequency of action potentials during stimulus minus baseline), 7B [11, 13]
O [water]	0	0	0	0	0	+ (+, >50 spikes/second)	0	0	+ (+, >50 spikes/second)	0	0	0		
CC(C)=CCCC(C)=CC=O [citral]	0	0	++ (++, >100 spikes/second)	0		0	0	0	0	0		0	0	0
CCCCCC(C)=O [2-heptanone]	0	0	+ (+, >50 spikes/second)	0		0	0	+ (+, >50 spikes/second)	0	0		0	+ (+, >50 spikes/second)	0
C=CC(O)CCCCC (stereo not drawn) [1-octen-3-ol]	0	0	0	0		0	0	+ (+, >50 spikes/second)	0	0		0	0	0
CCCCCCCCO [1-octanol]	0	0	0	0		0	0	+ (+, >50 spikes/second)	0	0		0	+ (+, >50 spikes/second)	0
C=C1CC/C=C(\C)CC[C@@H]2[C@@H]1CC2(C)C [β-caryophyllene]	0	++ (++, >100 spikes/second)	0	0		0	0	0	0	0		0	0	+ (+, >50 spikes/second)
C=CCSSSCC=C [diallyl trisulfide]	0	0	0	0		0	0	+ (+, >50 spikes/second)	0	0		0	+ (+, >50 spikes/second)	0
CCCC(=O)OCC [ethyl butyrate]	0	0	+ (+, >50 spikes/second)	0		0	0	++ (++, >100 spikes/second)	0	0		++ (++, >100 spikes/second)	+++ (+++, >150 spikes/second)	0
CCCC(=O)OC [methyl butyrate]	0	0	0	0		0	0	+ (+, >50 spikes/second)	0	0		+ (+, >50 spikes/second)	++ (++, >100 spikes/second)	0
CC/C=C\CCO [Z3-hexenol]	0	0	0	0		0	0	+ (+, >50 spikes/second)	0	0		0	+ (+, >50 spikes/second)	0
CC(=O)c1ccccc1 [acetophenone]	0	0	0	0		0	0	++ (++, >100 spikes/second)	0	0		+ (+, >50 spikes/second)	++ (++, >100 spikes/second)	0
